pIC50: −log10 of the molar value. The source made the active and inactive calls. No cut-off for these calls is given here.
Key:
[1] = molecular target: Phosphatidylinositol 4,5-bisphosphate 3-kinase catalytic subunit beta isoform (Homo sapiens, UniProt P42338); experiment: Inhibition of PI3Kbeta (unknown origin) using PIP2 as substrate in presence of ATP incubated for 60 mins by ADP-glo based luminescence assay
[2] = molecular target: Phosphatidylinositol 4,5-bisphosphate 3-kinase catalytic subunit gamma isoform (Homo sapiens, UniProt P48736); experiment: Inhibition of PI3Kgamma (unknown origin) using PIP2 as substrate in presence of ATP incubated for 60 mins by ADP-glo based luminescence assay
Chain of Phosphatidylinositol 4,5-bisphosphate 3-kinase catalytic subunit gamma isoform (P48736 whole entry, canonical isoform): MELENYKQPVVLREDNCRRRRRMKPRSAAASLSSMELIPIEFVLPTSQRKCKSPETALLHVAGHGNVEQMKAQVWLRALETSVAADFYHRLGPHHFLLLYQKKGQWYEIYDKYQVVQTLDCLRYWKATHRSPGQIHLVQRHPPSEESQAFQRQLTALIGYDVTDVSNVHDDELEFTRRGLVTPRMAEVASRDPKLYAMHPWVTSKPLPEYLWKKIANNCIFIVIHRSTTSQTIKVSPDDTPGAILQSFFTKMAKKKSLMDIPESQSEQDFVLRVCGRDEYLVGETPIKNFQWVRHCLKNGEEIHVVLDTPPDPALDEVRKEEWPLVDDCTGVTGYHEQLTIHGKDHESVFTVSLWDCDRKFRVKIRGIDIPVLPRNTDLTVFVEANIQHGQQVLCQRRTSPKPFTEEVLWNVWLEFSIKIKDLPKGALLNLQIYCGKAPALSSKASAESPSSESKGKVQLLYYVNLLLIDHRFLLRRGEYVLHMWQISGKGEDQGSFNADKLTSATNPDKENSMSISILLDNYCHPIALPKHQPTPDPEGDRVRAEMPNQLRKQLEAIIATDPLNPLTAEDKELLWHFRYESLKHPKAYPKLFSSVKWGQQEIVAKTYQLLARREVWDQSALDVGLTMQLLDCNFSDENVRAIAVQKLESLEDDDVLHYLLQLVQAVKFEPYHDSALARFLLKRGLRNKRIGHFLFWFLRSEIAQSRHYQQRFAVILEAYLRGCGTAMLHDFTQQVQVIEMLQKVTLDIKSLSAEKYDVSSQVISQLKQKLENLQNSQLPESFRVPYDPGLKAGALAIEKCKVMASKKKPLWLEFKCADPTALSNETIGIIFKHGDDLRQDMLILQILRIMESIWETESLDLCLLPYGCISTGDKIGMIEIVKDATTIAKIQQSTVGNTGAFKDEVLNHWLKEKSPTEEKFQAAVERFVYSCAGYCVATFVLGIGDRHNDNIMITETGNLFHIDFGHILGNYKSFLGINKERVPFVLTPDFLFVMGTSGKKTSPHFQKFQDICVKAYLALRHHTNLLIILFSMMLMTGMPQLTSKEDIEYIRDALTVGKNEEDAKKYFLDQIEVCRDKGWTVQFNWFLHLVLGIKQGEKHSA

MDA-MB-231 = experiment: Antiproliferative activity against human MDA-MB-231 cells assessed as reduction in cell viability incubated for 48 hrs by MTT assay; assay type: functional, cell-based; conditions: MDA-MB-231, 48 h
HCT-116 [3] = experiment: Antiproliferative activity against human HCT-116 cells assessed as reduction in cell viability incubated for 48 hrs by MTT assay; assay type: functional, cell-based; conditions: HCT-116, 48 h
L02 = experiment: Antiproliferative activity against human L02 cells assessed as reduction in cell viability incubated for 48 hrs by MTT assay; assay type: cell-based; conditions: L02, 48 h
A-431 = experiment: Antiproliferative activity against human A431 cells harboring wild type EGFR mutant assessed as reduction in cell viability incubated for 72 hrs by celltiter-glo assay; assay type: functional, cell-based; conditions: A-431, 72 h
HCT-116 [4] = experiment: Inhibition of AKT phosphorylation at S473 residue in human HCT-116 cells at 10 uM after 24 hrs by Western blot analysis; assay type: cell-based
HCT-116 [5] = experiment: Inhibition of cell migration in human HCT-116 cells at 1.5 uM measured after 24 hrs by wound healing assay (reference value: 31.16 %); assay type: functional
HCT-116 [6] = experiment: Inhibition of cell migration in human HCT-116 cells at 3 uM measured after 24 hrs by wound healing assay (reference value: 31.16 %); assay type: functional
HCT-116 [7] = experiment: Induction of cell cycle arrest in human HCT-116 cells assessed as increase in accumulation at G2/M phase at 1.5 to 6 uM after 24 hrs by propidium iodide staining based flow cytometric analysis (reference value: 19.1 %); assay type: functional; conditions: dose 1.5-6 µM
HCT-116 [8] = experiment: Induction of apoptosis in human HCT-116 cells assessed as viable cells at 2.5 uM incubated for 24 hrs by annexin V FITC/propidium iodide staining based flow cytometry (reference value: 81.2 %); assay type: functional; conditions: read-out: Activity
HCT-116 [9] = experiment: Induction of apoptosis in human HCT-116 cells assessed as necrotic cells at 2.5 uM incubated for 24 hrs by annexin V FITC/propidium iodide staining based flow cytometry (reference value: 0.9 %); assay type: functional
HCT-116 [10] = experiment: Induction of apoptosis in human HCT-116 cells assessed as viable cells at 5 uM incubated for 24 hrs by annexin V FITC/propidium iodide staining based flow cytometry (reference value: 81.2 %); assay type: functional; conditions: read-out: Activity
HCT-116 [11] = experiment: Induction of apoptosis in human HCT-116 cells assessed as early apoptotic cells at 5 uM incubated for 24 hrs by annexin V FITC/propidium iodide staining based flow cytometry (reference value: 11.1 %); assay type: functional
HCT-116 [12] = experiment: Induction of apoptosis in human HCT-116 cells assessed as late apoptotic cells at 5 uM incubated for 24 hrs by annexin V FITC/propidium iodide staining based flow cytometry (reference value: 6.8 %); assay type: functional
HCT-116 [13] = experiment: Induction of apoptosis in human HCT-116 cells assessed as necrotic cells at 5 uM incubated for 24 hrs by annexin V FITC/propidium iodide staining based flow cytometry (reference value: 0.9 %); assay type: functional
HCT-116 [14] = experiment: Induction of apoptosis in human HCT-116 cells assessed as viable cells at 10 uM incubated for 24 hrs by annexin V FITC/propidium iodide staining based flow cytometry (reference value: 81.2 %); assay type: functional; conditions: read-out: Activity
HCT-116 [15] = experiment: Induction of apoptosis in human HCT-116 cells assessed as necrotic cells at 10 uM incubated for 24 hrs by annexin V FITC/propidium iodide staining based flow cytometry (reference value: 0.9 %); assay type: functional
[16] = Stability of the compound in simulated gastrointestinal fluid; assay type: ADME
[17] = AUC (0 to 72 hrs) in Sprague-Dawley rat at 20 mg/kg, iv by LC-MS/MS analysis; assay type: ADME, organism-based; parameters: time < 72 hr, route intravenous, dose 20 mg/kg; conditions: in vivo
[18] = Half life in Sprague-Dawley rat at 20 mg/kg, iv by LC-MS/MS analysis; assay type: ADME, organism-based; conditions: in vivo
[19] = Tmax in Sprague-Dawley rat at 20 mg/kg, iv by LC-MS/MS analysis; assay type: ADME, organism-based; conditions: in vivo
[20] = Volume of distribution at steady state in Sprague-Dawley rat at 20 mg/kg, iv by LC-MS/MS analysis; assay type: ADME, organism-based; conditions: in vivo
Cytochrome P450 2C9 = Cytochrome P450 2C9 (Homo sapiens, UniProt P11712); experiment: Inhibition of CYP2C9 (unknown origin); assay type: ADME
Chain of Cytochrome P450 2C9 (P11712 whole entry): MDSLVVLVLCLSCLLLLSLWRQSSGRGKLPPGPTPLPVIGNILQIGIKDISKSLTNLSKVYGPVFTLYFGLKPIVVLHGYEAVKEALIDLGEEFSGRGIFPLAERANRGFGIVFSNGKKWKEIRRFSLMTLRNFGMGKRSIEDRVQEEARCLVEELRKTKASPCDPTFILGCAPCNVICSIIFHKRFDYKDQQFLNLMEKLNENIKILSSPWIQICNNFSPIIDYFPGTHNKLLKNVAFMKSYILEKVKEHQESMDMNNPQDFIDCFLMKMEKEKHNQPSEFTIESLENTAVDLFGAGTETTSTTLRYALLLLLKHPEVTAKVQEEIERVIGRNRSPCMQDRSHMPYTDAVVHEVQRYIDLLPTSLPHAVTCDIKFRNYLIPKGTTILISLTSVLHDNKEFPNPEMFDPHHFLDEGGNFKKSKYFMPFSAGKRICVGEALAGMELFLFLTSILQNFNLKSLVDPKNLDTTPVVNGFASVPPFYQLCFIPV

Cytochrome P450 3A4 = Cytochrome P450 3A4 (Homo sapiens, UniProt P08684); experiment: Inhibition of CYP3A4 (unknown origin); assay type: ADME
Chain of Cytochrome P450 3A4 (P08684 whole entry): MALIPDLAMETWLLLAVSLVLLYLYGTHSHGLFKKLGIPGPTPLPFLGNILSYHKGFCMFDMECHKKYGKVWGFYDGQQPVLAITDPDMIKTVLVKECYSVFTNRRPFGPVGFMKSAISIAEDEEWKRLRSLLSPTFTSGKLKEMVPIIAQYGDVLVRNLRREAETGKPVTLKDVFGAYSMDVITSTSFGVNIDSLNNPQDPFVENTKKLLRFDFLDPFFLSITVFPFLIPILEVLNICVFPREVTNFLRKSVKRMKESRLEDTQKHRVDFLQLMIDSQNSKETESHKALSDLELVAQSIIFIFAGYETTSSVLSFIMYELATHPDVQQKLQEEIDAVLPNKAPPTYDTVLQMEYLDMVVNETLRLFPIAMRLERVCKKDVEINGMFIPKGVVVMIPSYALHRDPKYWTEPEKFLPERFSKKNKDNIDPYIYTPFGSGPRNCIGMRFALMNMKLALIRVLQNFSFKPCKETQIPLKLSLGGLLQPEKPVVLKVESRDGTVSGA

HCT-116 [21] = experiment: Antitumor activity against human HCT-116 cells xenografted in BALB/c nude mouse assessed as tumor size at 20 mg/kg, iv administered for 19 days (reference value: 1264.1+/-95.7 mm3); assay type: functional; conditions: time 19 day
Heart = experiment: Toxicity in BALB/c mouse assessed as effect on heart by H and E staining based histological analysis; assay type: tissue-based; conditions: in vivo
Kidney = experiment: Toxicity in BALB/c mouse assessed as effect on kidney by H and E staining based histological analysis; assay type: tissue-based; conditions: in vivo
Mus musculus = experiment: Hyperglycemic activity in ICR mouse model assessed as effect on blood glucose level at 20 mg/kg, iv by glucometer; assay type: toxicity, organism-based; conditions: in vivo

Chain of Phosphatidylinositol 4,5-bisphosphate 3-kinase catalytic subunit beta isoform (P42338 whole entry, canonical isoform): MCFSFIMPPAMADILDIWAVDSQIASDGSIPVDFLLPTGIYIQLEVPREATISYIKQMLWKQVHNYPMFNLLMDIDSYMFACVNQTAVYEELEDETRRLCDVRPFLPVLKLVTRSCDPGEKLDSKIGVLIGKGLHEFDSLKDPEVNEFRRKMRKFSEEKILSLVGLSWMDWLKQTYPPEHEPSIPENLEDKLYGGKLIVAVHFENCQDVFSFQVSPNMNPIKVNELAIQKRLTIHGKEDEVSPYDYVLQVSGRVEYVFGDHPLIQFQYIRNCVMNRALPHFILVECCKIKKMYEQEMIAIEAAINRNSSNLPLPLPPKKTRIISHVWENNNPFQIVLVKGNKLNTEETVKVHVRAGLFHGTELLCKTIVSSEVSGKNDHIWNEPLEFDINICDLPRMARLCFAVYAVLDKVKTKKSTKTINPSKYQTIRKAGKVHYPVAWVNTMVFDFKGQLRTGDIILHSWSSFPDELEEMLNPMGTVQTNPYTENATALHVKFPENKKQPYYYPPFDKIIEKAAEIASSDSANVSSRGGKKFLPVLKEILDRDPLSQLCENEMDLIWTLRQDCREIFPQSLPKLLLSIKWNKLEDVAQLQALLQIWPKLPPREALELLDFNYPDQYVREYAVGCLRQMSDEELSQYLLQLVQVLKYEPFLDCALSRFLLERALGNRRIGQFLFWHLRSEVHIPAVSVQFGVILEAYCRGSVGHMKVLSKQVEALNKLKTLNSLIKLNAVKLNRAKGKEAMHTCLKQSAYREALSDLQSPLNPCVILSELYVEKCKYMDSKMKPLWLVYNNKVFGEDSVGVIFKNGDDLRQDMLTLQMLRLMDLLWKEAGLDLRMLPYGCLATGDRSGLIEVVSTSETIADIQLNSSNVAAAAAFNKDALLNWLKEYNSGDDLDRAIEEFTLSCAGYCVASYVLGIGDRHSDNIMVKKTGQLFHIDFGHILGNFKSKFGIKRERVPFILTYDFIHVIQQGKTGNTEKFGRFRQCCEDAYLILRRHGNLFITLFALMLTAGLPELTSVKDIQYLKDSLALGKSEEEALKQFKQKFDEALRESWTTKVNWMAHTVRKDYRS

NC(=O)[C@@H]1CCCN1C(=O)c1ccc(NC(=O)Nc2ccc(-c3nc(N4CCOCC4)nc(N4CCOCC4)n3)cc2)cc1
pIC50 [1]: 8.37 | pIC50 [2]: 8.06 | pIC50 (MDA-MB-231): 5.19 | pIC50 (HCT-116 [3]): 6.96 | pIC50 (L02): < 4.00 | pIC50 (A-431): 6.66 | inhibition (HCT-116 [4]): Active | inhibition at 1.5 µM (HCT-116 [5]): 12.2% | inhibition at 3 µM (HCT-116 [6]): 9.72% | Activity (HCT-116 [7]): 22.2% | viability at 2.5 µM (HCT-116 [8]): 58.7% | Activity (HCT-116 [9]): 2.2% | viability at 5 µM (HCT-116 [10]): 75.2% | Activity (HCT-116 [11]): 13.3% | Activity (HCT-116 [12]): 9.71% | Activity (HCT-116 [13]): 1.79% | viability at 10 µM (HCT-116 [14]): 63.1% | Activity (HCT-116 [15]): 1.7% | Stability [16]: Stable | AUC(0-t) at 72 h [17]: 30000 ng·h/mL | half-life [18]: 1140 min | Tmax [19]: 1.8 min | Vdss [20]: 17.9 L/kg | pIC50 (Cytochrome P450 2C9): < 4.30 | pIC50 (Cytochrome P450 3A4): < 4.30 | Activity (HCT-116 [21]): 796.2 mm3 | Activity (Heart): Non-Toxic | Activity (Kidney): Non-Toxic | Activity (Mus musculus): Non-Toxic
